Assay results reported in US9067974B2, “Polymyxin derivatives and uses thereof” (priority 2006, dated 2015).

What was measured:
A. baumannii ATCC 19606 = assay: Sensitization to rifampin: well diffusion growth inhibition on LB plates containing rifampin; format: cell-based, Acinetobacter baumannii; details: 4 μg of compound
E. coli IH3080 = assay: as above; format: cell-based, Escherichia coli; details: 4 μg of compound
Method: (§1) From an overnight-grown culture of IH3080 on LB agar, a suspension of approx. 10^8 cells/ml was prepared in 0.9% NaCl. Aliquots of this suspension were then pipetted on the agar plates and the plates were gently shaken to spread the suspension evenly on the entire surface of the plate. Thereafter, the unabsorbed part of the suspension was removed by using a Pasteur pipette. After the surface had dried, small wells (diameter, 2 mm) were drilled on the plates (five wells per plate) by using a sterile sharp-edged narrow metal tube, single-use pipette tip, and vacuum suction. […] Controls included 0.9% NaCl solution without the compound to be tested. The plates were then incubated for 18 h at 37° C. whereafter the diameters of growth inhibition zones around each well were measured; the diameter of the well itself was not reduced. Finally, the diameters were converted to surface areas of growth inhibition (in square mm).

[1] = system: Ps. aeruginosa ATCC 27853; assay: as above; format: cell-based, Pseudomonas aeruginosa; details: 4 μg of compound
E. coli IH3080 (K1:O18) = assay: Well diffusion growth inhibition on LB agar plates (direct antibacterial activity); format: cell-based, Escherichia coli
Method: Peptides synthesized in Example 1, all carrying at least two (2) but not more than three (3) positive charges, were studied for their ability to inhibit the growth of E. coli. This was tested employing LB agar (LB Agar Lennox, Difco, BD, Sparks, Md., U.S.A) plates. The indicator organism E. coli IH3080 (K1:O18) was an encapsulated strain originally isolated from a neonate suffering from meningitis (Vaara et al. 1984) and obtained from National Public Health Institute, Helsinki, Finland.
as §1

[2] = system: Acinetobacter baumannii ATCC 19606; assay: as above; format: cell-based; details: A. baumannii ATCC 19606
Method: (§2) From an overnight-grown culture of IH3080 on LB agar, a suspension of approx. 10^8 cells/ml was prepared in 0.9% NaCl. Aliquots of this suspension were then pipetted on the agar plates and the plates were gently shaken to spread the suspension evenly on the entire surface of the plate. Thereafter, the unabsorbed part of the suspension was removed by using a Pasteur pipette. After the surface had dried, small wells (diameter, 2 mm) were drilled on the plates (five wells per plate) by using a sterile sharp-edged narrow metal tube, single-use pipette tip, and vacuum suction. Samples (4 μl and 10 μl) of the peptide solution in 0.9% NaCl (at concentrations of 1 μg/ml and 0.1 μg/ml) were then pipetted to the wells and the sample fluids were allowed to absorb. Controls included 0.9% NaCl solution without the compound to be tested. The plates were then incubated for 18 h at 37° C. whereafter the diameters of growth inhibition zones around each well were measured; the diameter of the well itself was not reduced. Finally, the diameters were converted to surface areas of growth inhibition (in square mm).
(§3) Direct antibacterial activity of twelve NAB compounds against Acinetobacter baumannii ATCC 19606 and Pseudomonas aeruginosa ATCC 27853 was tested by using the susceptibility determination method described in Example 2. Five compounds (NAB7062, NAB734, NAB737, NAB739, and NAB740) had notable activity against A. baumannii. […] The antibacterial activity of NAB739 and NAB740 were as strong as or even stronger than that of polymyxin B.

[3] = system: Pseudomonas aeruginosa ATCC 27853; assay: as above; format: cell-based; details: Ps. aeruginosa ATCC 27853
Method: as §2, §3

Row | Substance | Antibacterial activity in the presence of rifampin (growth inhibition area around a well) (A. baumannii ATCC 19606; rifampin 0 μg/ml) [square millimeters] | Antibacterial activity in the presence of rifampin (growth inhibition area around a well) (A. baumannii ATCC 19606; rifampin 0.1 μg/ml) [square millimeters] | Antibacterial activity in the presence of rifampin (growth inhibition area around a well) (A. baumannii ATCC 19606; rifampin 0.3 μg/ml) [square millimeters] | Antibacterial activity in the presence of rifampin (growth inhibition area around a well) (E. coli IH3080; rifampin 0 μg/ml) [square millimeters] | Antibacterial activity in the presence of rifampin (growth inhibition area around a well) (E. coli IH3080; rifampin 0.1 μg/ml) [square millimeters] | Antibacterial activity in the presence of rifampin (growth inhibition area around a well) (E. coli IH3080; rifampin 1.0 μg/ml) [square millimeters] | Antibacterial activity in the presence of rifampin (growth inhibition area around a well) ([1]; rifampin 0 μg/ml) [square millimeters] | Antibacterial activity in the presence of rifampin (growth inhibition area around a well) ([1]; rifampin 0.1 μg/ml) [square millimeters] | Antibacterial activity in the presence of rifampin (growth inhibition area around a well) ([1]; rifampin 0.3 μg/ml) [square millimeters] | Antibacterial activity (growth inhibition area around a well) (E. coli IH3080 (K1:O18); 4 μg of compound per well) [square millimeters] | Antibacterial activity (growth inhibition area around a well) (E. coli IH3080 (K1:O18); 10 μg of compound per well) [square millimeters] | Antibacterial activity (growth inhibition area around a well) ([2]; 4 μg per well) [square millimeters] | Antibacterial activity (growth inhibition area around a well) ([2]; 10 μg per well) [square millimeters] | Antibacterial activity (growth inhibition area around a well) ([3]; 4 μg per well) [square millimeters] | Antibacterial activity (growth inhibition area around a well) ([3]; 10 μg per well) [square millimeters]
1 | OA-Thr-Abu-cy[Dab-Dab-DPhe-Leu-Dab-Dab-Leu-] [NAB 719] | 0 | 154 | 133 | 7 | 79 | 95 | 0 | 0 | 7 | 7 | 50 | 0 | 0 | 0 | 0
2 | OA-Thr-DSer-cy[Dab-Dab-DPhe-Leu-Dab-Dab-Thr-] [NAB 739] | 113 | 177 | 314 | 133 | 177 | 201 | 38 | 64 | 64 | 133 | 177 | 113 | 177 | 38 | 79
3 | DA-Thr-Abu-cy[Dab-Dab-DPhe-Leu-Dab-Dab-Thr-] [NAB 7062] | 13 | 50 | 95 | 50 | 104 | 104 | 0 | 0 | 7 | 50 | 99 | 13 | 38 | 0 | 0
4 | OA-Thr-Dab-cy[Dab-Dab-DPhe-Leu-Abu-Dab-Thr-] [NAB 716] | 0 | 0 | 64 | 13 | 133 | 165 | 0 | 0 | 0 | 13 | 64 | 0 | 0 | 0 | 0
5 | DA-cy[Dab-Dab-DPhe-Leu-Dab-Dab-Thr-] [NAB 736] | 0 | 95 | 154 | 0 | 113 | 133 | 38 | 38 | 38 | 0 | 0 | 0 | 0 | 38 | 79
6 | OA-Thr-Abu-cy[Dab-Dab-DLeu-Leu-Dab-Dab-Thr-] [NAB 718] | 0 | 0 | 38 | 0 | 13 | 133 | 0 | 0 | 0 | 0 | 0 | 0 | 0 | 0 | 0
